Measured values reported in patent publication US8574563B2 (Bristol-Myers Squibb Company, priority 2006, dated 2013).
Read-outs that look alike come from different tables or passages of the source.

Tested on: HCV 1b-377-neo replicon cells
Experiment: HCV replicon assay, HCV 1b-377-neo replicon cells (1b FRET)
Type: cell-based, Hepatitis C virus genotype 1b
Settings: HCV 1b-377-neo replicon cells, HCV 1b genotype, read-out: EC50 range against HCV 1b (Table 2, Range)
Outline: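 FRET-based replicon assay in HCV 1b-377-neo cells, including a comparison line carrying the NS5A Y2065H mutation that confers resistance to a reference compound.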

Structure (SMILES) | EC50 (Hepatitis C virus) [nM] | EC50 [nM]
COC(=O)N[C@@H](Cc1cscn1)C(=O)N1CCC[C@H]1c1ncc(-c2ccc(-c3ccc(-c4cnc([C@@H]5CCCN5C(=O)[C@@H](NC(=O)OC)C(C)C)[nH]4)cc3)cc2)[nH]1 [cj-79, methyl ((1S)-1-(((2S)-2-(5-(4′-(2-((2S)-1-((2S)-2-((methoxycarbonyl)amino)-3-(1,3-thiazol-4-yl)propanoyl)-2-pyrrolidinyl)-1H-imidazol-5-yl)-4-biphenylyl)-1H-imidazol-2-yl)-1-pyrrolidinyl)carbonyl)-2-methylpropyl)carbamate] | 0.001 to 0.999 | 
O=C([C@@H](c1ccccc1)N1CCCC1)N1CCC[C@H]1c1ncc(-c2ccc(-c3ccc(-c4cnc([C@@H]5CCCN5C(=O)[C@@H](c5ccccc5)N5CCOCC5)[nH]4)cc3)cc2)[nH]1 [Example 96, 4-((1R)-2-oxo-1-phenyl-2-((2S)-2-(5-(4′-(2-((2S)-1-((2R)-2-phenyl-2-(pyrrolidinyl)acetyl)-2-pyrrolidinyl)-1H-imidazol-5-yl)-4-biphenylyl)-1H-imidazol-2-yl)-1-pyrrolidinyl)ethyl)morpholine] |  | 0.001 to 0.999
CCCc1[nH]c([C@@H]2CCCN2C(=O)[C@@H](c2ccccc2)N(CC)CC)nc1-c1ccc(-c2ccc(-c3cnc([C@@H]4CCCN4C(=O)[C@@H](c4ccccc4)N(CC)CC)[nH]3)cc2)cc1 [Example J14c.1, (1R)-2-((2S)-2-(4-(4′-(2-((2S)-1-((2R)-2-(diethylamino)-2-phenylacetyl)-2-pyrrolidinyl)-1H-imidazol-4-yl)-4-biphenylyl)-5-propyl-1H-imidazol-2-yl)-1-pyrrolidinyl)-N,N-diethyl-2-oxo-1-phenylethanamine] | 0.001 to 0.999 | 
COCC[C@H](NC(=O)OC)C(=O)N1CCC[C@H]1c1ncc(-c2ccc(-c3ccc(-c4cnc([C@@H]5CCCN5C(=O)[C@@H](NC(=O)OC)[C@@H](C)OC)[nH]4)cc3)cc2)[nH]1 [cj-121, methyl ((1S,2R)-2-methoxy-1-(((2S)-2-(5-(4′-(2-((2S)-1-(N-(methoxycarbonyl)-O-methyl-L-homoseryl)-2-pyrrolidinyl)-1H-imidazol-5-yl)-4-biphenylyl)-1H-imidazol-2-yl)-1-pyrrolidinyl)carbonyl)propyl)carbamate] | 0.001 to 0.999 | 
CCN(CC)[C@H]1CC[C@@H](C(=O)N2CCC[C@H]2c2ncc(-c3ccc(-c4ccc(-c5cnc([C@@H]6CCCN6C(=O)[C@H]6CC[C@@H](N(CC)CC)CC6)[nH]5)cc4)cc3)[nH]2)CC1 [cj-152] | 1 to 99 | 
COC(=O)N[C@H](C(=O)N1CCC[C@H]1c1ncc(-c2ccc(-c3ccc(-c4cnc([C@@H]5CCCN5C(=O)[C@@H](NC(=O)OC)C(C)C)[nH]4)cc3CO)cc2)[nH]1)C(C)C [Example M119, methyl ((1S)-1-(((2S)-2-(5-(2-(hydroxymethyl)-4′-(2-((2S)-1-((2S)-2-((methoxycarbonyl)amino)-3-methylbutanoyl)-2-pyrrolidinyl)-1H-imidazol-5-yl)-4-biphenylyl)-1H-imidazol-2-yl)-1-pyrrolidinyl)carbonyl)-2-methylpropyl)carbamate] | 100 to 999 | 
COC(=O)N[C@H](C(=O)N1CCC[C@H]1c1ncc(-c2ccc(-c3ccc(-c4cnc([C@@H]5CCCN5C(=O)[C@@H](NC(=O)OC)C5CC5)[nH]4)cc3)cc2)[nH]1)C(C)C [Example M77, methyl ((1S)-1-(((2S)-2-(5-(4′-(2-((2S)-1-((2S)-2-cyclopropyl-2-((methoxycarbonyl)amino)acetyl)-2-pyrrolidinyl)-1H-imidazol-5-yl)-4-biphenylyl)-1H-imidazol-2-yl)-1-pyrrolidinyl)carbonyl)-2-methylpropyl)carbamate] | 1 to 99 | 
CCN(CC)[C@@H](C(=O)N1CCC[C@H]1c1ncc(-c2ccc(-c3ccc(-c4cnc([C@@H]5CCCN5C(=O)[C@H]5CC[C@@H](NC(=O)OC)C5)[nH]4)cc3)cc2)[nH]1)c1ccccc1 [cj-60, methyl ((1R,3S)-3-(((2S)-2-(5-(4′-(2-((2S)-1-((2R)-2-(diethylamino)-2-phenylacetyl)-2-pyrrolidinyl)-1H-imidazol-5-yl)-4-biphenylyl)-1H-imidazol-2-yl)-1-pyrrolidinyl)carbonyl)cyclopentyl)carbamate] | 0.001 to 0.999 | 
CN(C)[C@@H](C(=O)N1CCC[C@H]1c1ncc(-c2ccc(-c3ccc(-c4cnc([C@@H]5CCCN5C(=O)[C@@H](c5ccccc5)N(C)C)[nH]4)nn3)cc2)[nH]1)c1ccccc1 [Example 152j-9, (1R)-2-((2S)-2-(5-(6-(4-(2-((2S)-1-((2R)-2-(dimethylamino)-2-phenylacetyl)-2-pyrrolidinyl)-1H-imidazol-5-yl)phenyl)-3-pyridazinyl)-1H-imidazol-2-yl)-1-pyrrolidinyl)-N,N-dimethyl-2-oxo-1-phenylethanamine] | 1 to 99 | 
COC(=O)N[C@@H]1CCCC[C@@H]1C(=O)N1CCC[C@H]1c1ncc(-c2ccc(-c3ccc(-c4cnc([C@@H]5CCCN5C(=O)[C@H](NC(C)=O)c5ccccc5)[nH]4)cc3)cc2)[nH]1 [cj-98, methyl ((1R,2S)-2-(((2S)-2-(5-(4′-(2-((2S)-1-((2R)-2-acetamido-2-phenylacetyl)-2-pyrrolidinyl)-1H-imidazol-5-yl)-4-biphenylyl)-1H-imidazol-2-yl)-1-pyrrolidinyl)carbonyl)cyclohexyl)carbamate] | 0.001 to 0.999 | 
O=C(O)c1nc([C@@H]2CCCN2C(=O)[C@@H](c2ccccc2)N2CCCCC2)[nH]c1-c1ccc(-c2ccc(-c3cnc([C@@H]4CCCN4C(=O)[C@@H](c4ccccc4)N4CCCCC4)[nH]3)cc2)cc1 [Example J31, 2-((2S)-1-((2R)-2-phenyl-2-(1-piperidinyl)acetyl)-2-pyrrolidinyl)-5-(4′-(2-((2S)-1-((2R)-2-phenyl-2-(1-piperidinyl)acetyl)-2-pyrrolidinyl)-1H-imidazol-5-yl)-4-biphenylyl)-1H-imidazole-4-carboxylic acid] | 0.001 to 0.999 | 
CCN(CC)[C@@H](C(=O)N1CCC[C@H]1c1ncc(-c2ccc(-c3ccc(-c4cnc([C@@H]5CCCN5C(=O)[C@@H](NC(=O)OC)C(C)(C)C)[nH]4)cc3)cc2)[nH]1)c1ccccc1 [Example M59, methyl ((1S)-1-(((2S)-2-(5-(4′-(2-((2S)-1-((2R)-2-(diethylamino)-2-phenylacetyl)-2-pyrrolidinyl)-1H-imidazol-5-yl)-4-biphenylyl)-1H-imidazol-2-yl)-1-pyrrolidinyl)carbonyl)-2,2-dimethylpropyl)carbamate] | 1 to 99 | 
CN(C)Cc1ccccc1CC(=O)N1CCC[C@H]1c1ncc(-c2ccc(-c3ccc(-c4cnc([C@@H]5CCCN5C(=O)[C@@H](c5ccccc5)N5CCCCC5)[nH]4)cc3)cc2)[nH]1 [Example 107-23, N,N-dimethyl-1-(2-(2-oxo-2-((2S)-2-(5-(4′-(2-((2S)-1-((2R)-2-phenyl-2-(1-piperidinyl)acetyl)-2-pyrrolidinyl)-1H-imidazol-5-yl)-4-biphenylyl)-1H-imidazol-2-yl)-1-pyrrolidinyl)ethyl)phenyl) methanamine] | 0.001 to 0.999 | 
COC(=O)N[C@@H](C(=O)N1CCC[C@H]1c1ncc(-c2ccc(-c3ccc(-c4cnc([C@@H]5CCCN5C(=O)Cc5cccnc5)[nH]4)cc3C)cc2)[nH]1)c1ccccc1 [Example 127, methyl ((1R)-2-((2S)-2-(5-(2′-methyl-4′-(2-((2S)-1-(3-pyridinylacetyl)-2-pyrrolidinyl)-1H-imidazol-5-yl)-4-biphenylyl)-1H-imidazol-2-yl)-1-pyrrolidinyl)-2-oxo-1-phenylethyl)carbamate] | 0.001 to 0.999 | 
CCN(CC)[C@@H](C(=O)N1CCC[C@H]1c1ncc(-c2ccc(-c3ccc(-c4cnc([C@@H]5CCCN5C(=O)[C@@H](NC(=O)OC)C(C)C)[nH]4)cc3)cc2)[nH]1)C(C)(C)C [Example M91x] |  | 1 to 99
COC(=O)NCC(=O)N1CCC[C@H]1c1ncc(-c2ccc(-c3ccc(-c4cnc([C@@H]5CCCN5C(=O)[C@H](NC(=O)OC)c5ccccc5)[nH]4)cc3)cc2)[nH]1 [Example 40, methyl (2-((2S)-2-(5-(4′-(2-((2S)-1-((2R)-2-((methoxycarbonyl)amino)-2-phenylacetyl)-2-pyrrolidinyl)-1H-imidazol-5-yl)-4-biphenylyl)-1H-imidazol-2-yl)-1-pyrrolidinyl)-2-oxoethyl)carbamate] | 0.001 to 0.999 | 
CCN(CC)[C@@H](C(=O)N1CCC[C@H]1c1ncc(-c2ccc(-c3ccc(-c4cnc([C@@H]5CCCN5C(=O)[C@@H](NC(=O)OC)C(C)C)[nH]4)c(F)c3)cc2)[nH]1)c1ccccc1 [Example D35, methyl ((1S)-1-(((2S)-2-(5-(4′-(2-((2S)-1-((2R)-2-(diethylamino)-2 - phenylacetyl)-2-pyrrolidinyl)-1H-imidazol-5-yl)-3-fluoro-4-biphenylyl)-1H-imidazol-2-yl)-1-pyrrolidinyl)carbonyl)-2-methylpropyl) carbamate] | 0.001 to 0.999 | 
COC(=O)N[C@@H](C(=O)N1CCC[C@H]1c1ncc(-c2ccc(-c3ccc(-c4cnc([C@@H]5CCCN5C(=O)[C@@H](C)O)[nH]4)cc3)cc2)[nH]1)c1ccccc1 [Example 35, methyl ((1R)-2-((2S)-2-(5-(4′-(2-((2S)-1-((2R)-2-hydroxypropanoyl)-2-pyrrolidinyl)-1H-imidazol-5-yl)-4-biphenylyl)-1H-imidazol-2-yl)-1-pyrrolidinyl)-2-oxo-1-phenylethyl)carbamate] | 0.001 to 0.999 | 
Cc1cc(-c2cnc([C@@H]3CCCN3C(=O)[C@H](O)c3ccccc3)[nH]2)ccc1-c1ccc(-c2cnc([C@@H]3CCCN3C(=O)[C@H](O)c3ccccc3)[nH]2)cc1 [Example 125, (1R,1′R)-2,2′-((2-methyl-4,4′-biphenyldiyl)bis(1H-imidazole-5,2-diyl(2S)-2,1-pyrrolidinediyl))bis(2-oxo-1-phenylethanol)] | 0.001 to 0.999 | 
COC(=O)N[C@H](C(=O)N1CCC[C@@H]1c1ncc(-c2ccc(-c3ccc(-c4cnc([C@H]5CCCN5C(=O)[C@@H](NC(=O)OC)C(C)C)[nH]4)cc3)cc2)[nH]1)C(C)C [Example M28, methyl ((1S)-1-(((2R)-2-(5-(4′-(2-((2R)-1-((2S)-2-((methoxycarbonyl)amino)-3-methylbutanoyl)-2-pyrrolidinyl)-1H-imidazol-5-yl)-4-biphenylyl)-1H-imidazol-2-yl)-1-pyrrolidinyl)carbonyl)-2-methylpropyl)carbamate] | 1000 to 10000 | 
